Measured values reported in patent US7718641B2, “Pyrrolo [3,4-H] isoquinoline compounds and methods for modulating gated ion channels” (Aros Pharma ApS, priority 2005, dated 2010).

Tested on: formalin-induced pain
Assay: Formalin test, model of acute tonic pain
Assay type: in vivo, rat
Protocol: Male Sprague-Dawley rats are housed together in groups of three animals under standard conditions with unrestricted access to food and water. All experiments are conducted according to the ethical guidelines for investigations of experimental pain in conscious animals (Zimmerman, 1983)
Assessment of formalin-induced flinching behavior in normal, uninjured rats (body weight 150-180 g) was made with the use of an Automated Nociception Analyser (University of California, San Diego, USA). Briefly, this involved placing a small C-shaped metal band (10 mm wide×27 mm long) on the hindpaw of the rat to be tested. The rats (four rats were included in each testing session) were then placed in a cylindrical plexiglass observation chamber (diameter 30.5 cm and height 15 cm) for 20 min for adaptation purposes prior to being administered drug or vehicle according to the experimental paradigm being followed. After adaptation, individual rats were then gently restrained and formalin (5% in saline, 50 μl, s.c.) was injected into the plantar surface of the hindpaw using a 27G needle. Rats were then returned to their separate observation chambers, each of which were in turn situated upon an enclosed detection device consisting of two electromagnetic coils designed to produce an electromagnetic field in which movement of the metal band could be detected. The analogue signal was then digitised and a software algorithm (LabView) applied to enable discrimination of flinching behaviour from other paw movements. A sampling interval of 1 min was used and on the basis of the resulting response patterns 5 phases of nociceptive behaviour were identified and scored: first phase (P1; 0-5 min), interphase (Int; 6-15 min), second phase (P2; […]), phase 2A (P2A; 16-40 min) and phase 2B (P2B; 41-60 min).
Nociceptive behavior was also determined manually every 5 min by measuring the amount of time spent in each of four behavioral categories: 0, treatment of the injected hindpaw is indistinguishable from that of the contralateral paw; 1, the injected paw has little or no weight placed on it; 2, the injected paw is elevated and is not in contact with any surface; 3, the injected paw is licked, bitten, or shaken. A weighted nociceptive score, ranging from 0 to 3 was calculated by multiplying the time spent in each category by the category weight, summing these products, and dividing by the total time for each 5 min block of time. (Coderre et al., Pain 1993; 54: 43). On the basis of the resulting response patterns, […] of nociceptive behavior were identified and scored: first phase (P1; 0-5 min), interphase (Int; 6-15 min), second phase (P2; […]), phase 2A (P2A; 16-40 min) and phase 2B (P2B; 41-60 min). […]

| SMILES | ED50 (Rattus norvegicus, ip, i.p. 30 min before formalin, phase 2 (phase IIa), rat, read-out: ED50, total pain score in the formalin test) | total pain score behavior (flinching, licking, biting) (i.p. 30 min before formalin, phase 1 and 2, n=6-8) | pain intensity as evaluated by the flinching behavior (Automated Nociception Analyser, n=6-8) |
| --- | --- | --- | --- |
| COc1ccc(F)cc1-c1cc2c(c3c1CCN(C)C3)NC(=O)/C2=N/O [Compound A, 5-(5-fluoro-2-methoxyphenyl)-6,7,8,9-tetrahydro-3-(hydroxyimino)-8-methyl-1H-pyrrolo[3,2-h]isoquinoline-2(3H)-one] | ~12 mg/kg | reduce the total pain score behavior |  |
| CCN1CCc2c(-c3ccccc3)cc3c(c2C1)NC(=O)/C3=N/O [Compound H, 5-phenyl-6,7,8,9-tetrahydro-3-(hydroxyimino)-8-ethyl-1H-pyrrolo[3,2-h]isoquinoline-2(3H)-one] |  |  | dose-dependent reduction of the pain intensity |
